Reference: USRE38257E1, “Piperdine derivatives and hypotensives containing the same” (Ajinomoto Co., Inc., priority 1988, dated 2003)

System: male spontaneously hypertensive rats
Test: Decrease in systolic blood pressure in spontaneously hypertensive rats after intravenous bolus injection, indirect (tail-cuff) method
Assay type: in vivo, rat
Details: for Decrease in systolic blood pressure (mmHg) time after administration (hour) 0.5: 0.5 hour after administration; for Decrease in systolic blood pressure (mmHg) time after administration (hour) 4: 4 hours after administration
Protocol: As test animals, four male spontaneously hypertensive rats (weight 400 to 440 g) that were sufficiently adapted for feeding and in which hypertension was confirmed were used.
Physiological saline aqueous solution containing 2.5% Nicolle and 2.5% ethanol of sample was intravenously administered by bolus injection at a dose of 1 ml per 1 kg of body weight. Systolic blood pressure after administration was measured by the indirect (tail-cuff) method.

[1] = dose 10 mg/kg i.v. bolus, hydrochloride, 10 mg/kg

| SMILES | Decrease in systolic blood pressure (mmHg) time after administration (hour) 0.5 (dose 10 mg/kg i.v. bolus) [mmHg] | Decrease in systolic blood pressure (mmHg) time after administration (hour) 4 (dose 10 mg/kg i.v. bolus) [mmHg] | other results |
| --- | --- | --- | --- |
| COC(=O)C1(CCCCN2CCC(=C3c4ccccc4C=Cc4ccccc43)CC2)CCCCC1.Cl [Example 219, 1-(4-(4-(5H-Dibenzo[a,d]cyclohepten-5-ylidene)-1-piperidinyl)-butyl)-1-methoxycarbonylcyclohexane hydrochloride] | −104 | −33 | – |
| Cl.OC(CCN1CCC(=C2c3ccccc3C=Cc3ccccc32)CC1)c1ccc(F)cc1 (stereo not drawn) [Example 107, 3-(4-(5H-Dibenzo[a,d]cyclohepten-5-ylidene)-1-piperidinyl)-1-hydroxy-1-(4-fluorophenyl)propane hydrochloride] | −88 | −11 | – |
| Cl.OC(CCCN1CCC(=C2c3ccccc3C=Cc3ccccc32)CC1)c1ccccc1 (stereo not drawn) [Example 101, 4-(4-(5H-Dibenzo[a,d]cyclohepten-5-ylidene)-1-piperidinyl)-1-hydroxy-1-phenylbutane hydrochloride] | −89 | −14 | – |
| CCCCCCCCCCCCCCCCCCCN1CCC(=C2c3ccccc3C=Cc3ccccc32)CC1.Cl [Example 135, 4-(5H-Dibenzo[a,d]cyclohepten-5-ylidene)-1-nondecylpiperidine hydrochloride] | −132 | −50 | – |
| Cl.O=[N+]([O-])c1ccc(C=CCN2CCC(=C3c4ccccc4CCc4ccccc43)CC2)cc1 [Example 350, 4-(10,11-Dihydro-5H-dibenzo[a,d]cyclohepten-5-ylidene)-1-(4-nitrocinnamyl)piperidine hydrochloride] | −136 | −85 | – |
| Cl.O=S(=O)(CCCN1CCC(=C2c3ccccc3C=Cc3ccccc32)CC1)c1ccccc1 [Example 241, 3-(4-(5H-Dibenzo[a,d]cyclohepten-5-ylidene)-1-piperidinyl)-1-propyl phenylsulphone hydrochloride] | −73 | −4 | – |
| CC(=O)Nc1ccc(C=CCN2CCC(=C3c4ccccc4CCc4ccccc43)CC2)cc1.Cl.Cl [Example 352, 1-(4-Acetylaminocinnamyl)-4-(10,11 dihydro-5H-Dibenzo[a,d]cyclohepten-5-ylidene)piperidine dihydrochloride] | – | – | Decrease in systolic blood pressure (mmHg) time after administration (hour) 0.5 (dose 3 mg/kg i.v. bolus): −93 mmHg; Decrease in systolic blood pressure (mmHg) time after administration (hour) 4 (dose 3 mg/kg i.v. bolus): −60 mmHg |
| CC(=O)Oc1ccc(C=CCN2CCC(=C3c4ccccc4C=Cc4ccccc43)CC2)cc1.Cl [Example 364, 1-(4-Acetoxycinnamyl)-4-(5H-Dibenzo[a,d]cyclohepten-5-ylidene)piperidine hydrochloride] | – | – | Decrease in systolic blood pressure (mmHg) time after administration (hour) 0.5 (dose 1 mg/kg i.v. bolus): −113 mmHg |
| CC(=O)Nc1ccccc1CCCN1CCC(=C2c3ccccc3C=Cc3ccccc32)CC1.Cl.Cl [Example 252, 1-(2-Acetylaminophenyl)-3-(4-(5H-Dibenzo[a,d]cyclohepten-5-ylidene)-1-piperidinyl)propane dihydrochloride] | −23 | −5 | – |
| Cl.Nc1ccccc1C=CCN1CCC(=C2c3ccccc3C=Cc3ccccc32)CC1 [Example 303, 1-(2-Aminocinnamyl)-4-(5H-dibenzo[a,d]cyclohepten-5-ylidene)-1-piperidine hydrochloride] | – | – | Decrease in systolic blood pressure (mmHg) time after administration (hour) 0.5 (dose 3 mg/kg i.v. bolus): −90 mmHg; Decrease in systolic blood pressure (mmHg) time after administration (hour) 4 (dose 3 mg/kg i.v. bolus): −19 mmHg |
| Cl.O=C(Nc1ccc(C=CCN2CCC(=C3c4ccccc4C=Cc4ccccc43)CC2)cc1)C(F)(F)F [Example 380, 4-(5H-Dibenzo[a,d]cyclohepten-5-ylidene)-1-(4-trifluoroacetylaminocinnamyl)piperidine hydrochloride] | – | – | Decrease in systolic blood pressure (mmHg) time after administration (hour) 0.5 (dose 0.3 mg/kg i.v. bolus): −141 mmHg |
| COC(=O)Nc1ccc(C=CCN2CCC(=C3c4ccccc4C=Cc4ccccc43)CC2)cc1.Cl [Example 378, 4-(5H-Dibenzo[a,d]cyclohepten-5-ylidene)-1-(4-methoxycarbonylaminocinnamyl)piperidine hydrochloride] | – | – | Decrease in systolic blood pressure (mmHg) time after administration (hour) 0.5 (dose 1 mg/kg i.v. bolus): −106 mmHg; Decrease in systolic blood pressure (mmHg) time after administration (hour) 4 (dose 1 mg/kg i.v. bolus): −90 mmHg |
| CC(=O)Nc1ccc(CCCCN2CCC(=C3c4ccccc4C=Cc4ccccc43)CC2)cc1.Cl.Cl [Example 197] | −51 | −26 | – |
| Cl.Cl.Nc1ccc(CN2CCC(=C3c4ccccc4C=Cc4ccccc43)CC2)cc1 [Example 140, 1-(4-Aminobenzy)-4-(5H-Dibenzo[a,d]cyclohepten-5-ylidene)piperidine dihydrochloride] | – | – | Decrease in systolic blood pressure (mmHg) time after administration (hour) 0.5 (dose 3 mg/kg i.v. bolus): −113 mmHg; Decrease in systolic blood pressure (mmHg) time after administration (hour) 4 (dose 3 mg/kg i.v. bolus): −101 mmHg |
| C1=Cc2ccccc2C(=C2CCN(Cc3ccc4ccccc4c3)CC2)c2ccccc21.Cl [Example 212, 4-(5H-Dibenzo[a,d]cyclohepten-5-ylidene)-1-(2-naphthylmethyl)piperidine hydrochloride] | −155 | – | – |
| CC(=O)N1CCC(CCCN2CCC(=C3c4ccccc4C=Cc4ccccc43)CC2)CC1.Cl [Example 308, 1-(N-acetyl-4-piperidinyl)-3-(4-(5H-dibenzo[a,d]cyclohepten-5-ylidene)-1-piperidinyl)propane hydrochloride] | – | – | Decrease in systolic blood pressure (mmHg) time after administration (hour) 0.5 (dose 3 mg/kg i.v. bolus): −27 mmHg; Decrease in systolic blood pressure (mmHg) time after administration (hour) 4 (dose 3 mg/kg i.v. bolus): −5 mmHg |
| C1=Cc2ccccc2C(=C2CCN(Cc3ccncc3)CC2)c2ccccc21.Cl.Cl [Example 163, 4-(5H-Dibenzo[a,d]cyclohepten-5-ylidene)-1-(4-Picolyl)piperidine dihydrochloride] | −1 | 4 | – |
| C1=Cc2ccccc2C(=C2CCN(CCCCC3CCCCC3)CC2)c2ccccc21.Cl [Example 283, 4-(4-(4-(5H-Dibenzo[a,d]cyclohepten-5-ylidene)-1-piperidinyl)-1-butyl)cyclohexane hydrochloride] | – | – | Decrease in systolic blood pressure (mmHg) time after administration (hour) 0.5 [1]: −112 mmHg; Decrease in systolic blood pressure (mmHg) time after administration (hour) 4 [1]: 4 mmHg |
| C1=Cc2ccccc2C(=C2CCN(CCCOC3CCCCO3)CC2)c2ccccc21.Cl (stereo not drawn) [Example 235, 3-(4-(5H-Dibenzo[a,d]cyclohepten-5-ylidene)-1-piperidinyl)-1-propyl(2-tetrahydropyranyl)ether hydrochloride] | −99 | −5 | – |
| Cl.O=C(NCCN1CCCCC1=C1c2ccccc2C=Cc2ccccc21)C1CCCCC1 [Example 243, N-(2-(5H-Dibenzo[a,d]cyclohepten-5-ylidene)-1-piperidinyl)ethyl cyclohexanecarboxamide hydrochloride] | −111 | −31 | – |
| Cl.OCC1(CCCCN2CCC(=C3c4ccccc4C=Cc4ccccc43)CC2)CCCCC1 [Example 272, 1-(4-(4-(5H-Dibenzo[a,d]cyclohepten-5-ylidene)-1-piperidinyl)-1-butyl)-1-hydroxymethylcyclohexane hydrochloride] | −76 | −3 | – |
| C1=Cc2ccccc2C(=C2CCN(CCc3ccccc3)CC2)c2ccccc21.Cl [Example 13, 2-(4-(5H-Dibenzo[a,d]cyclohepten-5-ylidene)-1-piperidinyl)-1-phenylethane hydrochloride] | −47 | 4 | – |
| Cl.c1ccc2c(c1)CCc1ccccc1C2=C1CCN(CCCCC2CCCCC2)CC1 [Example 186] | −95 | −12 | – |
| Cl.Fc1cccc(CN2CCC(=C3c4ccccc4C=Cc4ccccc43)CC2)c1 [Example 112, 4-(5H-Dibenzo[a,d]cyclohepten-5-ylidene)-1-(3-fluorobenzyl)piperidine hydrochloride] | −16 | 0 | – |
| CCOC(=O)C1(CCCCN2CCC(=C3c4ccccc4C=Cc4ccccc43)CC2)CCCCC1.Cl [Example 269, 1-(4-(4-(5H-Dibenzo[a,d]cyclohepten-5-ylidene)-1-piperidinyl)-1-butyl)-1-ethoxycarbonxylcyclohexane hydrochloride] | 143 | −71 | – |
| Cl.O=[N+]([O-])c1cccc2c1CC(CCN1CCC(=C3c4ccccc4C=Cc4ccccc43)CC1)C2 (stereo not drawn) [Example 354, 2-(2-(4-(5H-Dibenzo[a,d]cyclohepten-5-ylidene)-1-piperidinyl)-1-ethyl)-4′-nitroindan hydrochloride] | – | – | Decrease in systolic blood pressure (mmHg) time after administration (hour) 0.5 (dose 3 mg/kg i.v. bolus): −89 mmHg; Decrease in systolic blood pressure (mmHg) time after administration (hour) 4 (dose 3 mg/kg i.v. bolus): −8 mmHg |
| Cl.O=C(CCN1CCC(=C2c3ccccc3C=Cc3ccccc32)CC1)OC1CCCCC1 [Example 236, Cyclohexyl 3-(4-(5H-Dibenzo[a,d]cyclohepten-5-ylidene)-1-piperidinyl)propionate hydrochloride] | −10 | −15 | – |
